According to US20160145247A1, “Aminomethyl-Biaryl Derivatives Complement Factor D inhibitors and uses thereof” (NOVARTIS AG, priority 2013, published 2016):

Target: T1, factor D (Homo sapiens, UniProt P00746)
T1 construct: made in house; host or cells: E. coli
Test: factor D inhibition assay of Biological Example 2
Type: biochemical

T1 sequence (P00746 26-253): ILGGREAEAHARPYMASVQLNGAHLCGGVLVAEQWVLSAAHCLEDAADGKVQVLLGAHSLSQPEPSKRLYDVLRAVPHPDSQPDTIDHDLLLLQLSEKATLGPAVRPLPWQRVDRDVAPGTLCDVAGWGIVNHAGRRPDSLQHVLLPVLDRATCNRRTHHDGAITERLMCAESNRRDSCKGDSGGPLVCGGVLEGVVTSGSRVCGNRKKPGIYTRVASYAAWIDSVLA

IC50 [nM]	SMILES
5	N[C@H](CO)c1cccc(-c2cc(COc3ccccc3CC(=O)O)cc(OCC(F)(F)F)c2)c1 [Example 115-C]
33	COC[C@@H](N)c1cccc(-c2cccc(COc3ccccc3CC(=O)O)c2)c1 [Example 169, (S)-2-(2-((3′-(1-Amino-2-methoxyethyl)-[1,1′-biphenyl]-3-yl)methoxy)phenyl)acetic acid]
1670	CC(C(=O)O)c1ccccc1OCc1cccc(-c2cccc(CN)c2)c1 (stereo not drawn) [Example 290, 2-(2-((3′-(aminomethyl)-[1,1′-biphenyl]-3-yl)methoxy)phenyl)propanoic acid]
71	COc1ccc(C(=O)Nc2ccccc2CC(=O)O)cc1-c1cc(F)cc(CN)c1 [Example 9]
2	NCc1cccc(-c2cc(NC3CC3)cc(C(=O)Nc3ccccc3CC(=O)O)n2)c1 [Example 50, 2-(2-(6-(3-(aminomethyl)phenyl)-4-(cyclopropylamino)picolinamido)phenyl)acetic acid]
5250	N[C@@H](CCO)c1cccc(-c2cccc(C(=O)Nc3ccccc3CC(=O)O)c2)c1 [Example 89, (S)-2-(2-(3′-(1-Amino-3-hydroxypropyl)-[1,1′-biphenyl]-3-ylcarboxamido)phenyl)acetic acid]
642	CCCC[C@@H](N)c1cccc(-c2cccc(COc3ccccc3CC(=O)O)c2)c1 [Example 196-D]

The remaining lines, values behind:

SMILES	IC50 [nM]
NC(CF)c1cccc(-c2cc(COc3ccccc3CC(=O)O)cc(NC[C@@H]3CCCO3)c2)c1F (mixture of isomers) [Example 204-B, 2-(2-((3′-(1-amino-2-fluoroethyl)-2′-fluoro-5-((((S)-tetrahydrofuran-2-yl)methyl)amino)-[1,1′-biphenyl]-3-yl)methoxy)phenyl)acetic acid (mixture of diastereomers)]	7
NCc1cccc(-c2cccc(COc3c(Br)cccc3CC(=O)O)c2)c1 [Example 174, 2-(2-((3′-(Aminomethyl)-[1,1′-biphenyl]-3-yl)methoxy)-3-bromophenyl)acetic acid]	111
C[C@@H](N)c1cccc(-c2cc(COc3ccccc3CC(=O)O)cc(OCc3cccnc3)c2)c1F [Example 214-L]	12
NCc1cc(F)cc(-c2cccc(C(=O)Nc3ccc(F)cc3CC(=O)O)c2)c1 [Example 21-J]	517
C[C@@H](N)c1cccc(-c2cc(OC[C@@H]3CCCO3)cc(C(=O)Nc3ccccc3CC(=O)O)c2)c1 [Example 80-C, 2-(2-(3′-((R)-1-Aminoethyl)-5-(((S)-tetrahydrofuran-2-yl)methoxy)-[1,1′-biphenyl]-3-ylcarboxamido)phenyl)acetic acid]	143
C[C@H](N)c1cccc(-c2cc(COc3ccccc3CC(=O)O)cc(OC[C@H]3CCCO3)c2)c1F [Example 233, 2-(2-((3′-((S)-1-aminoethyl)-2′-fluoro-5-(((R)-tetrahydrofuran-2-yl)methoxy)-[1,1′-biphenyl]-3-yl)methoxy)phenyl)acetic acid]	4
NCc1cc(F)cc(-c2cc(C(=O)Nc3ccccc3CC(=O)O)cc(-c3cnoc3)c2)c1 [Example 11-D, 2-(2-(3′-(Aminomethyl)-5′-fluoro-5-(isoxazol-4-yl)-[1,1′-biphenyl]-3-ylcarboxamido)phenyl)acetic acid]	17
CCOCc1cc(COc2ccccc2CC(=O)O)cc(-c2cccc([C@@H](C)N)c2F)c1 [Example 120-Q]	17
NCc1cccc(-c2cc(N)c(F)c(COc3ccccc3CC(=O)O)c2)c1 [154-C a), 2-(2-((5-Amino-3′-(aminomethyl)-4-fluoro-[1,1′-biphenyl]-3-yl)methoxy)phenyl)acetic acid]	3
Cc1ccc(COc2ccccc2CC(=O)O)cc1-c1cccc([C@H](N)CO)c1 [Example 116-K]	108
N[C@H](CO)c1cccc(-c2cc(C(=O)Nc3ccccc3CC(=O)O)cc(-c3cccc([C@H](N)CO)c3)c2)c1 [Example 82-B, 2-(2-(3,3″-bis((S)-1-amino-2-hydroxyethyl)-[1,1′:3′,1″-terphenyl]-5′-ylcarboxamido)phenyl)acetic acid]	19
